Where a name gives a salt, the structure may show the parent alone. Bounds are passed on as bounds.

Chain of D(1A) dopamine receptor (Q95136 whole entry): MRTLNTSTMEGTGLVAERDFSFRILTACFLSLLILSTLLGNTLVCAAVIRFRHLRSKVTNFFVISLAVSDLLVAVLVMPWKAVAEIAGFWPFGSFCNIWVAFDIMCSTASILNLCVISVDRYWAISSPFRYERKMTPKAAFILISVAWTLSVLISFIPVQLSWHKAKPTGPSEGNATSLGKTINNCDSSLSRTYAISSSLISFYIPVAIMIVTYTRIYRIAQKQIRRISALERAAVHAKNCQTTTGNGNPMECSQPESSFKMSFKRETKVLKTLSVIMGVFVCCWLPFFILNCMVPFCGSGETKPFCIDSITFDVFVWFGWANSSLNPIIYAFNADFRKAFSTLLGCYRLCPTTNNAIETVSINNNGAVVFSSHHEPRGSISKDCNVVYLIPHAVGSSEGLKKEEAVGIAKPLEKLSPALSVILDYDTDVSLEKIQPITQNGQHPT

This experiment has as its target D(1A) dopamine receptor (Bos taurus, UniProt Q95136).
In the case of `O=c1[nH]c2ccccc2n1CCCN1CCC(n2c(=O)[nH]c3cc(Cl)ccc32)CC1`, the Ki stood at 2.04 µM.
With `CN(C)CCCSc1ccccc1NC(=O)/C=C/c1ccccc1` [CINANSERIN], the inhibition constant Ki amounted to 2.09 µM.
On to `Cc1ccc(N(CC2=NCCN2)c2cccc(O)c2)cc1` [SMR000059054], for which the Ki is greater than 10 µM.
The same measure for `OCCC1CCN(CC/C=C2/c3ccc(F)cc3Sc3ccc(C(F)(F)F)cc32)CC1` [Lu 12-331]: 0.00029 µM; for `O=C(c1ccc(F)cc1)C1CCN(CCn2c(=O)[nH]c3ccccc3c2=O)CC1` [3-(2-{4-[(4-fluorophenyl)carbonyl]piperidin-1-yl}ethyl)-1,2,3,4-tetrahydroquinazoline-2,4-dione]: 0.395 µM.
Compound `CCN1CCCC1CNC(=O)c1cc(S(N)(=O)=O)ccc1OC` (configuration not stated) [N-[(1-ethylpyrrolidin-2-yl)methyl]-2-methoxy-5-sulfamoylbenzamide] showed a Ki greater than 10 µM.
Compound `C=CCN1CC[C@]23c4c5ccc(O)c4O[C@H]2C(=O)CC[C@@]3(O)[C@H]1C5` [[17-(2,3-3H-2-propenyl)]-4,5a-epoxy-3,14-dihydroxymorphinan-6-one] yielded a Ki greater than 10 µM.
For `CSc1ccc2c(c1)N(CC[C@@H]1CCCCN1C)c1ccccc1S2` [10-[2-(1-Methyl-piperidin-2-yl)-ethyl]-2-methylsulfanyl-10H-phenothiazine (thioridazine)] the value was 0.0754 µM; for `CC[C@@H](CO)NC(=O)[C@@H]1C=C2c3cccc4c3c(cn4C)C[C@H]2N(C)C1`, 1.58 µM; for `CN1[C@@H]2CC[C@H]1CC(OC(=O)[C@H](CO)c1ccccc1)C2` (some centres not stated) [CAS_51-55-8], greater than 10 µM.
Consider `CN1CCN2c3ccccc3Cc3ccccc3[C@H]2C1` [MIANSERIN (+)], for which the affinity corresponds to a Ki of 0.318 µM.
With `O=C(CCCN1CCC(O)(c2ccc(Cl)cc2)CC1)c1ccc(F)cc1` [4-[4-(4-Chloro-phenyl)-4-hydroxy-piperidin-1-yl]-1-(4-fluoro-phenyl)-butan-1-one;propionate(HCl)], the Ki came out at 0.315 µM. This Ki and that of the compound before are within 1.5-fold of each other.

The term Ki denotes the equilibrium dissociation constant of an inhibitor or competing ligand from its target. Low values mean a stronger hold on the target, high ones a looser hold on the target.
